Assay results published in article doi:10.1101/2025.08.21.671483v1, “In vitro and in vivo activity profiles of broad-spectrum bacterial ATP synthase inhibitors” (biorxiv, 2025).

Legend:
E. coli ATP synthase [1] = target: T1, E. coli ATP synthase (Escherichia coli, UniProt P68699); assay: ATP synthesis kinetics, membrane vesicles, luciferase luminescence; assay type: biochemical; details: ADP varied 0.05-1 mM, NADH-driven, pre-exposure 0-10 min
T1 construct: gene atpE

E. coli ATP synthase [2] = target: T1, E. coli ATP synthase; assay: ATP production by membrane vesicles, luciferase luminescence; assay type: biochemical; details: […] NADH, 1 mM ADP, 10 mM potassium phosphate; 30 min preincubation, 60 min reaction
Text: ATP production by membrane vesicles, luciferase luminescence on E. coli ATP synthase

[3] = system: T2, S. aureus ATCC 29740 (Newbould); assay: microbe, parasite or virus in culture; design: species or system bacteria; CLSI broth microdilution MIC, no visible growth; details: Staphylococcus aureus, ATCC29740, read-out: TM-184 MIC
T2 construct: ATCC 29740 (Newbould)

[4] = system: T3, Escherichia coli ATCC BAA2471; assay: microbe, parasite or virus in culture; design: species or system bacteria; CLSI broth microdilution MIC, no visible growth; details: ATCCBAA2471, read-out: Table 3 TM-184 MIC
T3 construct: ATCC BAA-2471

Escherichia coli ec308 = system: T4, Escherichia coli ec308; assay: microbe, parasite or virus in culture; design: species or system bacteria; CLSI broth microdilution MIC, no visible growth; details: EC308, read-out: Table 3 TM-184 MIC
T4 construct: ec308

Escherichia coli ec309 = system: T5, Escherichia coli ec309; assay: microbe, parasite or virus in culture; design: species or system bacteria; CLSI broth microdilution MIC, no visible growth; details: EC309, read-out: Table 3 TM-184 MIC
T5 construct: ec309

Escherichia coli ec310 = system: T6, Escherichia coli ec310; assay: microbe, parasite or virus in culture; design: species or system bacteria; CLSI broth microdilution MIC, no visible growth; details: EC310, read-out: Table 3 TM-184 MIC
T6 construct: ec310

[5] = system: T7, Escherichia coli 95882 CW-2011; assay: microbe, parasite or virus in culture; design: species or system bacteria; CLSI broth microdilution MIC, no visible growth; details: 95882CW2011, read-out: Table 3 TM-184 MIC
T7 construct: 95882 CW-2011

Escherichia coli ec305 = system: T8, Escherichia coli ec305; assay: microbe, parasite or virus in culture; design: species or system bacteria; CLSI broth microdilution MIC, no visible growth; details: EC305, read-out: Table 3 TM-184 MIC
T8 construct: ec305

[6] = system: T9, Escherichia coli ATCC 35218; assay: microbe, parasite or virus in culture; design: species or system bacteria; CLSI broth microdilution MIC, no visible growth; details: ATCC35218, read-out: Table 3 TM-184 MIC
T9 construct: ATCC 35218

[7] = system: T10, Escherichia coli 70122 CW-2007; assay: microbe, parasite or virus in culture; design: species or system bacteria; CLSI broth microdilution MIC, no visible growth; details: 70122CW2007, read-out: Table 3 TM-184 MIC
T10 construct: 70122 CW-2007

Escherichia coli ec302 = system: T11, Escherichia coli ec302; assay: microbe, parasite or virus in culture; design: species or system bacteria; CLSI broth microdilution MIC, no visible growth; details: EC302, read-out: Table 3 TM-184 MIC
T11 construct: ec302

E. coli MC4100 WT = system: T12, E. coli MC4100 WT; assay: microbe, parasite or virus in culture; design: species or system bacteria; CLSI broth microdilution MIC, no visible growth; details: Escherichia coli, MC4100WT, read-out: TM-184 MIC
T12 construct: MC4100 (ATCC 35695)

S. aureus ATP synthase = target: T13, S. aureus ATP synthase (Staphylococcus aureus, UniProt Q99SF0); assay: ATP production by membrane vesicles, luciferase luminescence; assay type: biochemical; details: […] NADH, 1 mM ADP, 10 mM potassium phosphate; 30 min preincubation, 60 min reaction
T13 construct: gene atpE
Text: ATP production by membrane vesicles, luciferase luminescence on S. aureus ATP synthase

[8] = system: T14, Citrobacterfreundii ATCC 8090; assay: organism not typed; design: species or system bacteria; CLSI broth microdilution MIC, no visible growth; details: read-out: Table 5 TM-184 MIC
T14 construct: ATCC 8090

E. coli MC4100 lptD4213 = system: T15, E. coli MC4100 lptD4213; assay: microbe, parasite or virus in culture; details: Escherichia coli, MC4100LPTD4213, read-out: MIC
T15 construct: MC4100 lptD4213 membrane-compromised

[9] = system: T16, Escherichia coli ATCC 25922; assay: microbe, parasite or virus in culture; details: ATCC25922, read-out: MIC (ug/ml) second column
T16 construct: ATCC 25922

E. coli ATCC 25922 = system: T17, E. coli ATCC 25922; assay: microbe, parasite or virus in culture; design: species or system bacteria; CLSI broth microdilution MIC, no visible growth; details: Escherichia coli, ATCC25922, read-out: TM-184 MIC
T17 construct: ATCC 25922

E. coli MC4100 acrAB = system: T18, E. coli MC4100 acrAB; assay: microbe, parasite or virus in culture; details: Escherichia coli, MC4100ACRAB, read-out: MIC
T18 construct: MC4100 acrAB efflux-deficient

S. aureus ATCC 29740hemB = assay: microbe, parasite or virus in culture; details: Staphylococcus aureus, ATCC29740HEMB, read-out: MIC

O=[N+]([O-])c1ccc(Cl)c2nonc12 [4-chloro-7-nitrobenzofurazan, reference compound]
Ki (E. coli ATP synthase [1]; positive control, covalent): 1800 nM

C[C@H]1CC[C@]2(NC1)O[C@H]1C[C@H]3[C@@H]4CC[C@H]5CC(NC[C@H](N)Cc6ccc(I)cc6)CC[C@]5(C)[C@H]4CC[C@]3(C)[C@H]1[C@@H]2C (mixture of isomers) [TM-184]
IC50 (E. coli ATP synthase [2]): 1570 ± 170 nM
MIC [3]: 2 µg/mL
MIC [4]: 16 µg/mL
MIC (Escherichia coli ec308): 4 µg/mL
MIC (Escherichia coli ec309): 16 µg/mL
MIC (Escherichia coli ec310): 16 µg/mL
MIC [5]: 16 µg/mL
MIC (Escherichia coli ec305): 2 µg/mL
MIC [6]: 16 µg/mL
MIC [7]: 16 µg/mL
MIC (Escherichia coli ec302): 16 µg/mL
MIC (E. coli MC4100 WT): 8 µg/mL
IC50 (S. aureus ATP synthase): 700 ± 330 nM
MIC [8]: 8 µg/mL
MIC (E. coli MC4100 lptD4213): 2 µg/mL
MIC [9]: 4 µg/mL
Ki (E. coli ATP synthase [1]): 800 to 1300 nM
MIC (E. coli ATCC 25922): 4 µg/mL
MIC (E. coli MC4100 acrAB): 4 µg/mL
MIC (S. aureus ATCC 29740hemB): ≤ 0.25 µg/mL
